Measurements published in patent publication US12685735B2 (Foghorn Therapeutics Inc., priority 2020, dated 2026).
Read-outs that look alike come from different tables or passages of the source.

What was measured:
[1] = molecular target: BRM (Homo sapiens, UniProt P51531); experiment: ATPase catalytic activity assay of BRM (ADP-Glo); assay type: biochemical; settings: for IC50: read-out: BRM IC50 (μM)*
Outline: (§1)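 Two room-temperature incubations follow the reaction: 40 min to eliminate unused ATP, then 60 min to turn ADP into ATP driving luciferase light output. Activity is read as luminescence proportional to ADP formed.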

[2] = molecular target: BRG-1 (Homo sapiens, UniProt P51532); experiment: ATPase catalytic activity assay of BRG-1 (ADP-Glo); assay type: biochemical; settings: ATPase catalytic activity, ADP-Glo; for IC50: read-out: BRG1 IC50 (μM)*; for Emax: read-out: BRG1 Max % Inhibition
Chain of BRG-1 (P51532 whole entry): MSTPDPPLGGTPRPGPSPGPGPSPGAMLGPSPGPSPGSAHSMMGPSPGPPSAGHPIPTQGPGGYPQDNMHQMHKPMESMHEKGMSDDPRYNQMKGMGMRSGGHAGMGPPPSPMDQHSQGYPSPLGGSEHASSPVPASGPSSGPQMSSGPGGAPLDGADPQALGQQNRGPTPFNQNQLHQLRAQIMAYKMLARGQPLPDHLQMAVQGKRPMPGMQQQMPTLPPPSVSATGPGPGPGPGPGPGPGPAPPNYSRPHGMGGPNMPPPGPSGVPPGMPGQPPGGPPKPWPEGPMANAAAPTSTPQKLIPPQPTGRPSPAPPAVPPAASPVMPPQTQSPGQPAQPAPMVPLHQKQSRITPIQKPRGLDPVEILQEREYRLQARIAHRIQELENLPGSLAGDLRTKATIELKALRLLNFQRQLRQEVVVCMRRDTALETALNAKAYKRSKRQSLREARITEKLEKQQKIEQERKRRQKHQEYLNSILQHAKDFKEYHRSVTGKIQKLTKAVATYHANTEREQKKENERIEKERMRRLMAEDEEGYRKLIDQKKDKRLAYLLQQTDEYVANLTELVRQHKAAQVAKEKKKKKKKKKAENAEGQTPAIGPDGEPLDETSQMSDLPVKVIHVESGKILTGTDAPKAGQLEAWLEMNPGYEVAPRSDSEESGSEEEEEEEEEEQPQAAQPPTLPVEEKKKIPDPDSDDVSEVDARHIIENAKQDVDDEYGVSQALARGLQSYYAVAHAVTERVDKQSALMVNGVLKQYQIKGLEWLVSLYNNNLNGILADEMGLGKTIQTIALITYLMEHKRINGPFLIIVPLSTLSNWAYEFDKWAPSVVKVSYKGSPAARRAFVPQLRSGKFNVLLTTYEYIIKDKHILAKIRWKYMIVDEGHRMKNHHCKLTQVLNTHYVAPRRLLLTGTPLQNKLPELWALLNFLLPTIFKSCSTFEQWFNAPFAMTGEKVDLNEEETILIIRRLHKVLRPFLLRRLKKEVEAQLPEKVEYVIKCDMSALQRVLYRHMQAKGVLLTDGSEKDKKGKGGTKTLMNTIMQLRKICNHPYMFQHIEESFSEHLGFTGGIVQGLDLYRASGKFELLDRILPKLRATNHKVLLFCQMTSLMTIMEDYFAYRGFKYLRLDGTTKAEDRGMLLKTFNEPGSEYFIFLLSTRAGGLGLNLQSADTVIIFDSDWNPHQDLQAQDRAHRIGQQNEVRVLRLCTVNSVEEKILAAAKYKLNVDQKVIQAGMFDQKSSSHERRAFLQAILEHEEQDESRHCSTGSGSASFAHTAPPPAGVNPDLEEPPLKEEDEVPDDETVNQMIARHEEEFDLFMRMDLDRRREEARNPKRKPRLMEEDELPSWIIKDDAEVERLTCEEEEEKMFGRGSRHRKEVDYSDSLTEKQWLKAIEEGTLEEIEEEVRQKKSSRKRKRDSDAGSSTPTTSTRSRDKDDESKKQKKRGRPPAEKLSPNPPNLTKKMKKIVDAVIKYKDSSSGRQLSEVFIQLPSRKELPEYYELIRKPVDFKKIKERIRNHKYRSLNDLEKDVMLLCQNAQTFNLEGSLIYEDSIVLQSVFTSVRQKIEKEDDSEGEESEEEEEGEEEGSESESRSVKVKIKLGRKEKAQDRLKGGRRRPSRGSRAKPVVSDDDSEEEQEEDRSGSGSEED
Outline: as §1

Chain of BRM (P51531 whole entry): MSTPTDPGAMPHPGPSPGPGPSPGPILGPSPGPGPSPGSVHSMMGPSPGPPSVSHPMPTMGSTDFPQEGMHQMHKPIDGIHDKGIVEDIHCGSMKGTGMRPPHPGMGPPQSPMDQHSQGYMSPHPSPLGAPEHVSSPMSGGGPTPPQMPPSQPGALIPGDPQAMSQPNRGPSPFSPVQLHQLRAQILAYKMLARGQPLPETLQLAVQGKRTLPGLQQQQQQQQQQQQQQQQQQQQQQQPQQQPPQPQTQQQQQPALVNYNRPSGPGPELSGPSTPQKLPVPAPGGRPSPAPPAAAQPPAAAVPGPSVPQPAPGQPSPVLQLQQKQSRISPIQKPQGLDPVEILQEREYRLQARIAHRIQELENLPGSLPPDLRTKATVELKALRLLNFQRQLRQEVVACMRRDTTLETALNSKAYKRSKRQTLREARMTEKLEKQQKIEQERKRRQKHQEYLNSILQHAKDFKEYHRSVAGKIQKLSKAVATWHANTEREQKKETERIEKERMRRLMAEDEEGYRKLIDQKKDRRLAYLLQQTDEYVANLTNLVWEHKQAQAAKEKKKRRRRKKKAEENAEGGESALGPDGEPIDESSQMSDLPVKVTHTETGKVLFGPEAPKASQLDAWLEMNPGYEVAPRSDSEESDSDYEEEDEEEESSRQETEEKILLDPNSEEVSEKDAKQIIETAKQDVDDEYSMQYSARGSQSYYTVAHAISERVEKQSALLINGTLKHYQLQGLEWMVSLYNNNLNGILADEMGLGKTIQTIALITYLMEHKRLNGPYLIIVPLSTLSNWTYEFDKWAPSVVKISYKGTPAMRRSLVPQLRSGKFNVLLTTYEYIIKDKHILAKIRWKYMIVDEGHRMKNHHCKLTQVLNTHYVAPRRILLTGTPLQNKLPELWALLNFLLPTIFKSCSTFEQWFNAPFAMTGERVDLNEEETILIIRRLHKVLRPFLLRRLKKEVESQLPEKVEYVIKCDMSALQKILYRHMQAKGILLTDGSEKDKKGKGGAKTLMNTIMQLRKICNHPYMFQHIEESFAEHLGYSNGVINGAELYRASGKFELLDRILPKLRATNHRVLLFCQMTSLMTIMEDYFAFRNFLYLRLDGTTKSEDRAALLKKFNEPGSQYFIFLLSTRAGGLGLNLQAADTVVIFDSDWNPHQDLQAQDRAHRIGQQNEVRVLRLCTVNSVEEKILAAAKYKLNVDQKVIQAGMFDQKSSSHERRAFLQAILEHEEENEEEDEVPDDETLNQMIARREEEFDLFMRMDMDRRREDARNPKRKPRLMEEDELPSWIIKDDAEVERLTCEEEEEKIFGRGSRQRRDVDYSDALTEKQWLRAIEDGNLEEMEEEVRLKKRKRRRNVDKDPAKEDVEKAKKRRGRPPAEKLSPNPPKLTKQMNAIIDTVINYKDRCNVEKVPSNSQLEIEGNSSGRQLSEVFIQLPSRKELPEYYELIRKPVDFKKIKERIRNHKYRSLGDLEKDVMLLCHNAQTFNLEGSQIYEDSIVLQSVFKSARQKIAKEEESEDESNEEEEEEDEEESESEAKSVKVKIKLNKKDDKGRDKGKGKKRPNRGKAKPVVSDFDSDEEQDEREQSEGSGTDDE

BRM Max % Inhibition [1] [%] | IC50 [1] [µM] | IC50 [2] [µM] | Emax [2] [%] | BRG1 Max % Inhibition [2] [%] | BRM Max % Inhibition ([1]; 30 nM BRM, 400 μM ATP) [%] | IC50 ([1]; 30 nM BRM, 400 μM ATP) [µM] | IC50 ([2]; 30 nM BRG-1, 400 μM ATP) [µM] | Emax ([2]; 30 nM BRG-1, 400 μM ATP) [%] | Structure (SMILES)
>90 | 0.1 to 1 | 1 to 5 | > 90 |  |  |  |  |  | C[C@@H]1CN(c2cccc(-c3csc(NC(=O)CNC(=O)c4cccc([C@]5(C)COC[C@H]5O)c4)n3)n2)C[C@H](C)O1 [Compound 408]
>95 | < 0.1 | 0.1 to 1 | > 95 |  |  |  |  |  | C[C@@]1(C#N)COCc2ccc(C(=O)NCC(=O)Nc3nc(-c4cccc([C@H]5CCO5)c4)cs3)cc21 [Compound 359, (R)-4-cyano-4-methyl-N-(2-((4-(3-((trans)-oxetan-2-yl)phenyl)thiazol-2-yl)amino)-2-oxoethyl)isochromane-6-carboxamide]
 |  |  |  |  | >80 | 1 to 5 | > 5 | > 80 | C[C@@H]1CN(c2cccc(-c3csc(NC(=O)CNC(=O)c4ccc5c(c4)C(C)(C#N)COC5)n3)n2)C[C@H](C)O1 (stereo in doubt) [Compound 421, (S)-4-cyano-N-(2-((4-(6-((cis)-2,6-dimethylmorpholino)pyridin-2-yl)thiazol-2-yl)amino)-2-oxoethyl)-4-methylisochromane-6-carboxamide]
>95 | < 0.1 | 0.1 to 1 | > 95 |  |  |  |  |  | C[C@@]1(C#N)COCc2ccc(C(=O)NCC(=O)Nc3nc(-c4cccc([C@@H]5CC5(F)F)n4)cs3)cc21 [Compound 386, (R)-4-cyano-N-(2-((4-(6-((S)-2,2-difluorocyclopropyl)pyridin-2-yl)thiazol-2-yl)amino)-2-oxoethyl)-4-methylisochromane-6-carboxamide]
 |  |  |  |  | >90 | 0.1 to 1 | 1 to 5 | > 90 | COC[C@H](NC(=O)c1ccnc(C(C)(C)C)c1)C(=O)Nc1nc(-c2cccc(N3C[C@@H](C)O[C@@H](C)C3)c2)cs1 [Compound 436, 2-(tert-butyl)-N-((S)-1-((4-(3-((cis)-2,6-dimethylmorpholino)phenyl)thiazol-2-yl)amino)-3-methoxy-1-oxopropan-2-yl)isonicotinamide]

The remaining lines, values behind:

Structure (SMILES) | BRM Max % Inhibition [1] [%] | IC50 [1] [µM] | IC50 [2] [µM] | Emax [2] [%] | BRG1 Max % Inhibition [2] [%] | BRM Max % Inhibition ([1]; 30 nM BRM, 400 μM ATP) [%] | IC50 ([1]; 30 nM BRM, 400 μM ATP) [µM] | IC50 ([2]; 30 nM BRG-1, 400 μM ATP) [µM] | Emax ([2]; 30 nM BRG-1, 400 μM ATP) [%]
C[C@@H]1CN(c2cccc(-c3csc(NC(=O)CNC(=O)c4cccc([C@@H]5COC[C@H]5O)c4)n3)n2)C[C@H](C)O1 [Compound 160, N-(2-((4-(6-((cis)-2,6-dimethylmorpholino)pyridin-2-yl)thiazol-2-yl)amino)-2-oxoethyl)-3-((3R,4S)-4-hydroxytetrahydrofuran-3-yl)benzamide] | >80 | 0.1 to 1 | > 5 | < 30 |  |  |  |  | 
C[C@@]1(F)COCc2ccc(C(=O)NCC(=O)Nc3nc(-c4cc(F)cc(C#N)c4)cs3)cc21 [Compound 314, (S)-N-(2-((4-(3-cyano-5-fluorophenyl)thiazol-2-yl)amino)-2-oxoethyl)-4-fluoro-4-methylisochromane-6-carboxamide] | >90 | < 0.1 | 0.1 to 1 | > 90 |  |  |  |  | 
COc1nccc(-c2cccc(-c3csc(NC(=O)CNC(=O)c4cccc(S(=O)(=O)C(C)C)c4)n3)n2)n1 [Compound 119, 3-isopropylsulfonyl-N-[2-[[4-[6-(2-methoxypyrimidin-4-yl)-2-pyridyl]thiazol-2-yl]amino]-2-oxo-ethyl]benzamide] | >95 | < 0.1 | 0.1 to 1 | > 80 |  |  |  |  | 
CC(O)(c1cccc(C(=O)NCC(=O)Nc2nc(-c3cccc(-c4ccncc4)c3)cs2)c1)C(F)(F)F (stereo not shown) [Compound 78, N-(2-oxo-2-((4-(3-(pyridin-4-yl)phenyl)thiazol-2-yl)amino)ethyl)-3-(1,1,1-trifluoro-2-hydroxypropan-2-yl)benzamide] | >80 | 0.1 to 1 | 1 to 5 | > 40 |  |  |  |  | 
Cc1nccc(-c2cccc(-c3csc(NC(=O)CNC(=O)c4ccc5c(c4)[C@](C)(C#N)CC5)n3)n2)n1 [Compound 249, (3R)-3-cyano-3-methyl-N-[2-[[4-[6-(2-methylpyrimidin-4-yl)-2-pyridyl]thiazol-2-yl]amino]-2-oxo-ethyl]indane-5-carboxamide] | >95 | < 0.1 | < 0.1 | > 95 |  |  |  |  | 
C[C@@H]1CN(c2cccc(-c3csc(NC(=O)CNC(=O)c4ccc5c(c4)C(F)(C(F)F)COC5)n3)c2)C[C@H](C)O1 (stereo in doubt) [Compound 308, (S)-4-(difluoromethyl)-N-(2-((4-(3-((cis)-2,6-dimethylmorpholino)phenyl)thiazol-2-yl)amino)-2-oxoethyl)-4-fluoroisochromane-6-carboxamide] | >95 | < 0.1 | < 0.1 | > 95 |  |  |  |  | 
CC(C)S(=O)(=O)c1cccc(C(=O)NCC(=O)Nc2nc(-c3cccc(-c4cc(CO)cc(C(F)(F)F)c4)c3)cs2)c1 [Compound 27, N-(2-((4-(3′-(hydroxymethyl)-5′-(trifluoromethyl)-[1,1′-biphenyl]-3-yl)thiazol-2-yl)amino)-2-oxoethyl)-3-(isopropylsulfonyl)benzamide] | >95 | < 0.1 | 0.1 to 1 |  |  |  |  |  | 
C[C@H](CO)S(=O)(=O)c1cccc(C(=O)NCC(=O)Nc2nc(-c3cccc(-c4ccncc4)c3)cs2)c1 [Compound 116, (R)-3-((1-hydroxypropan-2-yl)sulfonyl)-N-(2-oxo-2-((4-(3-(pyridin-4-yl)phenyl)thiazol-2-yl)amino)ethyl)benzamide] | >80 | 0.1 to 1 | 1 to 5 | > 40 |  |  |  |  | 
CCC(C)(O)c1cccc(C(=O)NCC(=O)Nc2nc(-c3cccc(-c4ccncc4)c3)cs2)c1 (single isomer, unassigned) [Compound 81] | >90 | 0.1 to 1 | 0.1 to 1 |  | >70 |  |  |  | 
C[C@@H]1CN(c2cccc(-c3csc(NC(=O)CNC(=O)c4ccc5c(c4)[C@]4(CCO4)COC5)n3)n2)C[C@H](C)O1 [Compound 349, (R)-N-(2-((4-(6-((cis)-2,6-dimethylmorpholino)pyridin-2-yl)thiazol-2-yl)amino)-2-oxoethyl)spiro[isochromane-4,2′-oxetane]-6-carboxamide] | >95 | < 0.1 | 0.1 to 1 | > 95 |  |  |  |  | 
CCOC(=O)N1CCCC(c2csc(NC(=O)CNC(=O)c3ccc4c(c3)[C@](C)(F)COC4)n2)C1 (stereo in doubt) [Compound 283, ethyl (S)-3-(2-(2-((S)-4-fluoro-4-methylisochromane-6-carboxamido)acetamido)thiazol-4-yl)piperidine-1-carboxylate] | >95 | < 0.1 | 0.1 to 1 | > 95 |  |  |  |  | 
C[C@@H]1CN(c2cccc(-c3csc(NC(=O)CNC(=O)c4cccc([C@@]5(C(F)F)CCOC5)c4)n3)c2)C[C@H](C)O1 [Compound 286, 3-((S)-3-(difluoromethyl)tetrahydrofuran-3-yl)-N-(2-((4-(3-((cis)-2,6-dimethylmorpholino)phenyl)thiazol-2-yl)amino)-2-oxoethyl)benzamide] | >95 | < 0.1 | 1 to 5 | > 95 |  |  |  |  | 
